Our source for the remaining activity and IC50 values is patent US20230183219A1, “CONDENSED SUBSTITUTED HYDROPYRROLES AS ANTAGONISTS OF THE MUSCARINIC ACETYLCHOLINE RECEPTOR M4” (Vanderbilt University, priority 2020, published 2023).

Molecules are shown by their SMILES. pIC50: −log10 of the molar value.

The target of this assay is T1, Human M4 (Homo sapiens, UniProt P08173).
T1 construct: Human or rat M4 cDNA, along with the chimeric G protein Gqi5, were transfected into Chinese hamster ovary (CHO-K1) cells; expressed in transfected cells; host or cells: CHO-K1 (Chinese hamster ovary, ATCC), stably co-expressing Gqi5
T1 sequence (P08173 1-479): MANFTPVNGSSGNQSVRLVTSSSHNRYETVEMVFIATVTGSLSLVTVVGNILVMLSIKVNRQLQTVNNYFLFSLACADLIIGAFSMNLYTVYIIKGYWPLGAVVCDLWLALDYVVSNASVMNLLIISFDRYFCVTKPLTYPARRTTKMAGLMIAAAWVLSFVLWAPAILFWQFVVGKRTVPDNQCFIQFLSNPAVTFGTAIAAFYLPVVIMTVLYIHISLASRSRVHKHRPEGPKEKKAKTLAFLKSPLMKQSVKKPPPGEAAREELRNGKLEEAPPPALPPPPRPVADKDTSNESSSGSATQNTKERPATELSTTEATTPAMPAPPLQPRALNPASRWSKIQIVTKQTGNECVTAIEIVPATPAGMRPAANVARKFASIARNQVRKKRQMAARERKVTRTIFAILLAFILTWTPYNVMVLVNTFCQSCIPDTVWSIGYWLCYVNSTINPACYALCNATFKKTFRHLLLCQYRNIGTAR
Kind of assay: mAChR M4 cell-based functional assay (calcium flux, decrease of EC80 acetylcholine response). To be noted: for remaining activity at 30 µM: % ACh maximum at 30 μM, read-out: Human M4 Emin; for pIC50: M4/Gqi5/CHO-K1 cells, decrease of response to EC80 acetylcholine. In short, it runs like this:
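CHO-K1 cells stably co-expressing M4 and chimeric Gqi5, loaded with Fluo-4 AM; calcium flux read on FDSS. Compound added at 2 s, EC20 acetylcholine at 143 s, EC80 acetylcholine at 268 s. IC50 from concentration-dependent decrease of the EC80 response, four-parameter logistic fit; 10-point 1:3 titrations.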

As a reminder, the pIC50 is −log10 of the IC50, conventionally taken in molar units. With `Cc1ccc(C)c(-c2cc(C(F)(F)F)c(N[C@H]3C[C@@H]4CN(C[C@@H]5COCCO5)C[C@@H]4C3)nn2)c1` [Example 71, (3aR,5s,6aS)-2-(((R)-1,4-dioxan-2-yl)methyl)-N-(6-(2,5-dimethylphenyl)-4-(trifluoromethyl)pyridazin-3-yl)octahydro-cyclopenta[c]pyrrol-5-amine], the remaining activity at 30 µM stood at 3% and the pIC50 is 6.74.
On to `CCc1ccccc1-c1cc(C(F)(F)F)c(N[C@H]2C[C@@H]3CN(CC4CCOCC4)C[C@@H]3C2)nn1` [Example 85, (3aR,5s,6aS)-N-(6-(2-ethylphenyl)-4-(trifluoro-methyl)pyridazin-3-yl)-2-((tetrahydro-2H-pyran-4-yl)methyl)octahydro-cyclopenta[c]pyrrol-5-amine], for which the remaining activity at 30 µM turned out to be 3% and the pIC50 was 7.37.
For the compound `Fc1cccc(-c2cc(C(F)(F)F)c(N[C@H]3C[C@@H]4CN(CC5CCOCC5)C[C@@H]4C3)nn2)c1F` [Example 81, (3aR,5s,6aS)-N-(6-(2,3-difluorophenyl)-4-(trifluoro-methyl)pyridazin-3-yl)-2-((tetrahydro-2H-pyran-4-yl)methyl)octahydro-cyclopenta[c]pyrrol-5-amine], the remaining activity at 30 µM was determined as 3% and the pIC50 is 6.75.
The like results for `[2H]C([2H])(C1CCOCC1)N1C[C@H]2C[C@H](Nc3nnc(-c4ccc5nn(C)cc5c4)cc3C(F)(F)F)C[C@H]2C1` [Example 18, (3aR,5s,6aS)-N-(6-(2-methyl-2H-indazol-5-yl)-4-(trifluoro-methyl)pyridazin-3-yl)-2-((tetrahydro-2H-pyran-4-yl)methyl-d2)octahydro-cyclopenta[c]pyrrol-5-amine] were, in that order, 3% and 7.53.
Take `Cc1ccc(C)c(-c2cc(C(F)(F)F)c(N[C@H]3C[C@@H]4CN(CC5CCOCC5)C[C@@H]4C3)nn2)c1` [Example 44, (3aR,5s,6aS)-N-(6-(2,5-dimethylphenyl)-4-(trifluoromethyl)pyridazin-3-yl)-2-((tetrahydro-2H-pyran-4-yl)methyl)octahydro-cyclopenta[c]pyrrol-5-amine]: the remaining activity at 30 µM is 2% and the pIC50 is 7.28.
As to `[2H]C([2H])(C1CCOCC1)N1C[C@H]2C[C@H](Nc3nnc(-c4cc(F)ccc4C)cc3C(F)(F)F)C[C@H]2C1` [Example 17, (3aR,5s,6aS)-N-(6-(5-fluoro-2-methylphenyl)-4-(trifluoro-methyl)pyridazin-3-yl)-2-((tetrahydro-2H-pyran-4-yl)methyl-d2)octahydro-cyclopenta[c]pyrrol-5-amine], the remaining activity at 30 µM turned out to be 3% and the pIC50 was 7.95.
In the case of `Cn1cnc2ccc(-c3cc(C(F)(F)F)c(N[C@H]4C[C@@H]5CN(Cc6ccccn6)C[C@@H]5C4)nn3)cc21` [Example 117, (3aR,5s,6aS)-N-(6-(1-methyl-1H-benzo[d]imidazol-6-yl)-4-(trifluoromethyl)pyridazin-3-yl)-2-(pyridin-2-ylmethyl)octahydro-cyclopenta[c]pyrrol-5-amine], the remaining activity at 30 µM was found to be 4% and the pIC50 is 6.46.
As for `FC(F)(F)c1cc(-c2ccccc2)nnc1N[C@H]1C[C@@H]2CN(Cc3ccccn3)C[C@@H]2C1` [Example 102, (3aR,5s,6aS)-N-(6-phenyl-4-(trifluoro-methyl)pyridazin-3-yl)-2-(pyridin-2-ylmethyl)octahydro-cyclopenta[c]pyrrol-5-amine], the remaining activity at 30 µM was found to be 4% and the pIC50 was 6.46.
The like results for `Cn1cc(-c2cc(C(F)(F)F)c(N[C@H]3C[C@@H]4CN(CC5CCOCC5)C[C@@H]4C3)nn2)cn1` [Example 66, (3aR,5s,6aS)-N-(6-(1-methyl-1H-pyrazol-4-yl)-4-(trifluoro-methyl)pyridazin-3-yl)-2-((tetrahydro-2H-pyran-4-yl)methyl)octahydro-cyclopenta[c]pyrrol-5-amine] were, in that order, 3% and 6.92.
With `N#Cc1ccc(F)c(-c2cc(C(F)(F)F)c(N[C@H]3C[C@@H]4CN(CC5CCOCC5)C[C@@H]4C3)nn2)c1` [Example 54, 4-fluoro-3-(6-(((3aR,5s,6aS)-2-((tetrahydro-2H-pyran-4-yl)methyl)octahydro-cyclopenta[c]pyrrol-5-yl)amino)-5-(trifluoro-methyl)pyridazin-3-yl)benzonitrile], the remaining activity at 30 µM is 4% and the negative-log IC50 (pIC50) was 6.65.
As for `Cc1ccc(F)cc1-c1cc(C#N)c(N[C@H]2C[C@@H]3CN(C[C@H]4COCCO4)C[C@@H]3C2)nn1` [Example 149, 3-(((3aR,5s,6aS)-2-(((S)-1,4-dioxan-2-yl)methyl)octahydro-cyclopenta[c]pyrrol-5-yl)amino)-6-(5-fluoro-2-methylphenyl)pyridazine-4-carbonitrile], the remaining activity at 30 µM turned out to be 2% and the negative logarithm of the IC50 (pIC50) was 9.40.
On to `COc1c(F)cc(-c2cc(C(F)(F)F)c(N[C@H]3C[C@@H]4CN(CC5CCOCC5)C[C@@H]4C3)nn2)cc1F` [Example 80, (3aR,5s,6aS)-N-(6-(3,5-difluoro-4-methoxyphenyl)-4-(trifluoromethyl)pyridazin-3-yl)-2-((tetrahydro-2H-pyran-4-yl)methyl)octahydro-cyclopenta[c]pyrrol-5-amine], for which the remaining activity at 30 µM came out at 3% and the pIC50 was 6.77.
For the compound `N#Cc1cc(-c2cc(F)ccc2Cl)nnc1N[C@H]1C[C@@H]2CN(CC3CCOCC3)C[C@@H]2C1` [Example 145, 6-(2-chloro-5-fluorophenyl)-3-(((3aR,5s,6aS)-2-((tetrahydro-2H-pyran-4-yl)methyl)octahydro-cyclopenta[c]pyrrol-5-yl)amino)pyridazine-4-carbonitrile], the remaining activity at 30 µM was determined as 3% and the pIC50 is 8.85.
Take `FC(F)(F)Oc1ccccc1-c1cc(C(F)(F)F)c(N[C@H]2C[C@@H]3CN(CC4CCOCC4)C[C@@H]3C2)nn1` [Example 58, (3aR,5s,6aS)-2-((tetrahydro-2H-pyran-4-yl)methyl)-N-(6-(2-(trifluoro-methoxy)phenyl)-4-(trifluoromethyl)pyridazin-3-yl)octahydro-cyclopenta[c]pyrrol-5-amine]: the remaining activity at 30 µM was found to be 3% and the pIC50 was 6.60.
With `Cc1ccc(F)cc1-c1cc(C#N)c(N[C@H]2C[C@@H]3CN(C[C@@H]4CCOC4)C[C@@H]3C2)nn1` [Example 151, 6-(5-fluoro-2-methylphenyl)-3-(((3aR,5s,6aS)-2-(((S)-tetrahydrofuran-3-yl)methyl)octahydro-cyclopenta[c]pyrrol-5-yl)amino)pyridazine-4-carbonitrile], the remaining activity at 30 µM was found to be 7% and the pIC50 was 6.98.
Regarding `FC(F)(F)c1cc(N2CCOCC2)nnc1N[C@H]1C[C@@H]2CN(CC3CCOCC3)C[C@@H]2C1` [Example 143, (3aR,5s,6aS)-N-(6-morpholino-4-(trifluoromethyl)pyridazin-3-yl)-2-((tetrahydro-2H-pyran-4-yl)methyl)octahydro-cyclopenta[c]pyrrol-5-amine], the remaining activity at 30 µM came out at 2% and the pIC50 is 7.45.
For the compound `[2H]C([2H])(C1CCOCC1)N1C[C@H]2C[C@H](Nc3nnc(-c4cc(F)ccc4F)cc3C(F)(F)F)C[C@H]2C1` [Example 50, (3aR,5s,6aS)-N-(6-(2,5-difluorophenyl)-4-(trifluoromethyl)pyridazin-3-yl)-2-((tetrahydro-2H-pyran-4-yl)methyl-d2)octahydro-cyclopenta[c]pyrrol-5-amine], the remaining activity at 30 µM amounted to 3% and the pIC50 was 6.84.
Consider `[2H]C([2H])([2H])OC([2H])([2H])c1ccc(F)cc1-c1cc(C(F)(F)F)c(N[C@H]2C[C@@H]3CN(CC4CCOCC4)C[C@@H]3C2)nn1` [Example 47, (3aR,5s,6aS)-N-(6-(5-fluoro-2-((methoxy-d3)methyl-d2)phenyl)-4-(trifluoromethyl)pyridazin-3-yl)-2-((tetrahydro-2H-pyran-4-yl)methyl)octahydro-cyclopenta[c]pyrrol-5-amine], for which the remaining activity at 30 µM amounted to 4% and the pIC50 was 7.15.
`FC(F)(F)c1cc(N2CCCC2)nnc1N[C@H]1C[C@@H]2CN(CC3CCOCC3)C[C@@H]2C1` [Example 142, (3aR,5s,6aS)-N-(6-(pyrrolidin-1-yl)-4-(trifluoro-methyl)pyridazin-3-yl)-2-((tetrahydro-2H-pyran-4-yl)methyl)octahydro-cyclopenta[c]pyrrol-5-amine]: the remaining activity at 30 µM is 2% and the negative logarithm of the IC50 (pIC50) is 8.52.
As for `[2H][C@@]1(Nc2nnc(-c3cccc(F)c3)cc2C(F)(F)F)C[C@H]2CN(CC3CCOCC3)C[C@H]2C1` [Example 127, (3aR,5s,6aS)-N-(6-(3-fluoro-phenyl)-4-(trifluoromethyl)pyridazin-3-yl)-2-((tetrahydro-2H-pyran-4-yl)methyl)octahydro-cyclopenta[c]pyrrol-5-d-5-amine], the remaining activity at 30 µM is 3% and the pIC50 is 7.19.
